Test results published in patent publication US12491183B2, “Compositions and methods of using nintedanib for treating ocular diseases with abnormal neovascularization” (ADS Therapeutics LLC, priority 2016, dated 2025).
“Also recorded” adds a separate entry of the source.

Experiments:
[1] = tested on: suture-induced neovascularization in the rabbit cornea; experiment: Rabbit cornea suture model of neovascularization; assay type: in vivo
Procedure: Topical compositions comprising 0.2% or 0.05% nintedanib in 10% 2-hydroxypropyl beta cyclodextrin in phosphate buffer solution, pH 7.4 were prepared. Thirty female Zealand White rabbits were used to perform the study. Briefly, five sutures were placed in the upper cornea of the right eye of each animal on Day 1 to induce neovascularization. The animals were treated in both eyes with either drug, vehicle or saline as described in Table 1. [table] During the study, the animals were closely observed for various ocular indications as well as general physical conditions including body weight. Ocular images were taken on days 7, 10, 12, 14, 21, 28 for analysis of hyperemia. NIH ImageJ® software was used to analyze the ocular images. Each image was opened in ImageJ®, the scale was calibrated using the ruler in the photograph and the neovascularized area on the cornea near the suture was selected by the selection tool. The area in mm^2 was calculated by measurement tool in the software, recorded in excel and the image was captured and saved. […] The results were plotted as histograms of average with standard deviation for easy comparison.

[2] = tested on: corneal graft rejection (C57BL/6 cornea transplanted onto BALB/c mice); experiment: Mouse corneal graft rejection model; assay type: in vivo; conditions: nintedanib 0.2% solution TID for 8 weeks vs vehicle solution
Excerpt: In this example, cornea of C57BL/6 mice would be transplanted onto BALB/c mice cornea as described (Sonoda et al. Invest Ophthalmol Vis Sci. 1995 February; 36(2):427-34; Invest Ophthalmol Vis Sci. 2000 March; 41(3):790-8; Yamagami et al. Invest Ophthalmol Vis Sci. 2001 May; 42(6): 1293-8). The suture would be removed on day 7 after transplant. The mice would be divided into two groups. Group 1 would be treated with the nintedanib 0.2% solution and group 2 with the vehicle solution. Treatment would start immediately after transplant, TID for 8 weeks. The corneal opacity and graft rejection will be assessed weekly for 8 weeks as described.

With `COC(=O)c1ccc2c(c1)NC(=O)/C2=C(\Nc1ccc(N(C)C(=O)CN2CCN(C)CC2)cc1)c1ccccc1` [nintedanib, Methyl (3Z)-3-{[(4-{methyl[(4-methylpiperazin-1-yl)acetyl]amino}phenyl)amino] (phenyl)methylidene}-2-oxo-2,3-dihydro-1H-indole-6-carboxylate] the “efficacy of TID dosing compared with BID dosing” value ([1]; rabbit cornea suture model, topical ocular, TID vs BID) was “higher efficacy”, the “efficacy of 0.2% nintedanib compared with 0.05% nintedanib” value ([1]; rabbit cornea suture model, topical ocular, higher dose 0.2% vs 0.05%) was “better efficacy” and the “effect on suture-induced corneal neovascularization (area of cornea neovascularization)” value ([1]; rabbit, topical ocular 0.2% or 0.05% solution BID or TID days 8 to 15, vs vehicle, day 12 and day 14 after suture) was “reduced cornea neovascularization; also recorded: marked inhibitory effect; also recorded: strongly inhibited corneal neovascularization”. The “survival of the graft (rejection rate)” value [2] was “significantly increased survival of the graft”.
